The supplement of paper PMC10307832

Tests used:
Test in all cases: relative viability (nuclei count vs DMSO), 5 days (fraction); higher = more cells survive
[1] = compound: CC(C)C[C@H](NC(=O)[C@H](CCc1ccccc1)NC(=O)CN1CCOCC1)C(=O)N[C@@H](Cc1ccccc1)C(=O)N[C@@H](CC(C)C)C(=O)[C@@]1(C)CO1 [Carfilzomib] + N=C(N)NC(=N)NCCc1ccccc1 [Phenformin] (partner 250 µM)
Procedure, shortened: (§1)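 Lung cancer cell lines, seeded in 1536-well plates, were treated the following day by pin tool with a single drug or with five library-drug doses (not always all listed) in √10 steps on top of a fixed anchor-drug dose. Cells were fixed and nuclei stained in one step after 5 days, and nuclei were counted. Relative viability is the nuclei count for treated wells divided by that for vehicle wells, reported as medians of duplicate plates.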

[2] = compound: O=C(c1cc(Cc2n[nH]c(=O)c3ccccc23)ccc1F)N1CCN(C(=O)C2CC2)CC1 [Olaparib] + CC(C)C[C@H](NC(=O)[C@H](Cc1ccccc1)NC(=O)c1cnccn1)B(O)O [Bortezomib] (partner 0.002 µM)
Procedure, shortened: as §1

[3] = compound: O=C(c1cc(Cc2n[nH]c(=O)c3ccccc23)ccc1F)N1CCN(C(=O)C2CC2)CC1 [Olaparib] + Nc1ncn([C@H]2C[C@H](O)[C@@H](CO)O2)c(=O)n1 [Decitabine] (partner 2 µM)
Procedure, shortened: as §1

[4] = compound: CC(C)C[C@H](NC(=O)[C@H](CCc1ccccc1)NC(=O)CN1CCOCC1)C(=O)N[C@@H](Cc1ccccc1)C(=O)N[C@@H](CC(C)C)C(=O)[C@@]1(C)CO1 [Carfilzomib] + CC1(C)CCC(c2ccc(Cl)cc2)=C(CN2CCN(c3ccc(C(=O)NS(=O)(=O)c4ccc(N[C@H](CCN5CCOCC5)CSc5ccccc5)c(S(=O)(=O)C(F)(F)F)c4)cc3)CC2)C1 [Navitoclax] (partner 0.5 µM)
Procedure, shortened: as §1

Cell Line | relative viability ([1]; first compound 0.001 µM) | relative viability ([1]; first compound 0.003162 µM) | relative viability ([1]; first compound 0.01 µM) | relative viability ([1]; first compound 0.03162 µM) | relative viability ([1]; first compound 0.1 µM) | relative viability ([2]; first compound 0.08 µM) | relative viability ([2]; first compound 0.253 µM) | relative viability ([2]; first compound 2.53 µM) | relative viability ([2]; first compound 8 µM) | relative viability ([3]; first compound 0.08 µM) | relative viability ([3]; first compound 2.53 µM) | relative viability ([3]; first compound 8 µM) | relative viability ([4]; first compound 0.001 µM) | relative viability ([4]; first compound 0.003162 µM) | relative viability ([4]; first compound 0.01 µM) | relative viability ([4]; first compound 0.03162 µM) | relative viability ([4]; first compound 0.1 µM) | relative viability ([3]; first compound 0.253 µM)
PC-3 [JPC-3] | 0.487 | 0.461 | 0.464 | 0.432 | 0.261 | 0.991 | 0.692 | 0.852 | 0.846 | 0.82 | 0.761 | 0.741 | 0.74 | 0.84 | 0.761 | 0.705 | 0.138 | 
PC-14 | 0.549 | 0.774 | 0.557 | 0.115 | 0.0595 | 1.04 | 0.892 | 0.78 | 0.682 | 0.153 | 0.101 | 0.105 | 1 | 1.05 | 1.05 | 0.133 | 0.0977 | 0.124
RERF-LC-KJ | 0.44 | 0.421 | 0.419 | 0.354 | 0.236 | 1.19 | 1.14 | 1.03 | 1.06 | 0.703 | 0.558 | 0.451 | 0.972 | 1.13 | 0.608 | 0.218 | 0.252 | 0.637
SK-LU-1 | 0.458 | 0.529 | 0.48 | 0.0958 | 0.114 | 1.33 | 1.08 | 1.23 | 1.19 | 0.476 | 0.504 | 0.452 | 0.77 | 0.896 | 0.286 | 0.0872 | 0.0846 | 0.484
SW 1573 | 0.341 | 0.43 | 0.251 | 0.0664 | 0.0618 | 1.03 | 0.987 | 0.769 | 0.619 | 0.32 | 0.16 | 0.139 | 1.06 | 1.11 | 0.8 | 0.0728 | 0.0538 | 0.301
UMC-11 | 0.318 | 0.33 | 0.295 | 0.293 | 0.162 | 0.98 | 0.648 | 0.538 | 0.325 | 0.497 | 0.405 | 0.4 | 0.278 | 0.326 | 0.332 | 0.269 | 0.103 | 
